Experimental data published in publication PMC4939265, “Synthesis, Molecular Modeling, and Biological Evaluation of Novel Tetrahydro-β-Carboline Hydantoin and Tetrahydro-β-Carboline Thiohydantoin Derivatives as Phosphodiesterase 5 Inhibitors” (International Journal of Medicinal Chemistry, 2011).
pIC50: −log10 of the molar value. Read-outs that look alike come from different tables or passages of the source.

Tests used:
recombinant human PDE5 = target: T1, recombinant human PDE5 (Homo sapiens, UniProt O76074); test: IMAP fluorescence polarization phosphodiesterase assay (TAMRA-cGMP substrate); assay type: biochemical; conditions: for pIC50: 10 concentrations, at least two replicates per concentration, read-out: PDE5 inhibition IC50; for PDE5 inhibition, result in words: SAR discussion; for inhibition at 10 µM: read-out: %PDE5 inhibition at 10 μM
T1 construct: purchased BPS Biosciences, San Diego, CA
Experimental: PDE activity was measured using a modification of the IMAP fluorescence polarization phosphodiesterase assay from Molecular Devices. The assay was modified to use tetramethylrhodamine- (TAMRA-) cGMP as substrate. PDE hydrolysis of the fluorescent labeled substrate allows it to bind the IMAP binding reagent, which results in increased FP. […] The assays were performed in 96-well microtiter plates using a reaction buffer containing 10 mM Tris-HCl (pH 7.2), 10 mM MgCl2, 0.05% NaN3, and 0.1% phosphate-free BSA as the carrier. Each well contained 20 μL of recombinant enzyme (5 units//mL, BPS Biosciences, San Diego, CA) and 10 μL test agent. The reaction was initiated by the addition of 10 μL of a substrate solution containing 50 nM TAMRA-cGMP. After incubating at room temperature for 60 minutes, the reaction was terminated by adding 120 μL of binding solution. FP was measured by a Perkin Elmer Envision plate reader.
Dose response curves were analyzed using Prism 4 software (GraphPad) to calculate IC50 values using a four-parameter logistic equation. All in vitro experiments involved dose-response analysis were repeated at least twice to confirm reproducibility of IC50 values.

[1] = screening dose 10 μM, triplicate

SMILES	pIC50 (recombinant human PDE5)	PDE5 inhibition, result in words (recombinant human PDE5)	inhibition at 10 µM (recombinant human PDE5; [1]) [%]	melting point [°C]	inhibition at 10 µM (recombinant human PDE5) [%]
COc1ccc([C@@H]2c3[nH]c4ccccc4c3C[C@@H]3C(=O)N(C(C)(C)C)C(=O)N23)c(OC)c1 [Compound 9, (5R,11aR)-2-Tertiarybutyl-5-(2,4-dimethoxyphenyl)-5,6,11,11a-tetrahydro-1-H-imidazo[5,1-6,1]pyrido[3,4-b]indole-1,3-dione]	5.62	active PDE5 inhibitors	83	108 to 110	–
COc1ccc([C@@H]2c3[nH]c4ccccc4c3C[C@@H]3C(=O)N(c4ccc(Cl)cc4)C(=O)N23)c(OC)c1 [Compound 13, (5R,11aR)-2-(P-Chlorophenyl)-5-(2,4-dimethoxyphenyl)-5,6,11,11a-tetrahydro-1H-imidazo[5,1-6,1]pyrido[3,4-b]indole-1,3-dione]	–	–	63	134 to 136	–
CCN1C(=O)[C@H]2Cc3c([nH]c4ccccc34)[C@@H](c3ccc(OC)cc3OC)N2C1=O [Compound 5, (5R,11aR)-2-Ethyl-5-(2,4-dimethoxyphenyl)-5,6,11,11a-tetrahydro-1-H-imidazo[5,1-6,1]pyrido[3,4-b]indole-1,3-dione]	6.44	active PDE5 inhibitors	87	216 to 218	–
COc1ccc([C@H]2c3[nH]c4ccccc4c3C[C@H]3C(=O)N(c4ccc(Cl)cc4)C(=O)N23)c(OC)c1 [Compound 15, (5S,11aS)-2-(P-Chlorophenyl)-5-(2,4-dimethoxyphenyl)-5,6,11,11a-tetrahydro-1-H-imidazo[5,1-6,1]pyrido[3,4-b]indole-1,3-dione]	–	–	35	135 to 138	–
COC(=O)[C@@H]1Cc2c([nH]c3ccccc23)[C@H](c2ccc(OC)cc2OC)N1 [Compound 3, (1S,3S) Methyl-1-(2,4-dimethoxyphenyl)-2,3,4,9-tetrahydro-1-H-pyrido[3,4-b]indole-3-carboxylate]	–	–	55	88 to 90	–
COc1ccc([C@@H]2c3[nH]c4ccccc4c3C[C@H]3C(=O)N(C)C(=S)N23)c(OC)c1 [Compound 17, (5R,11aS)-2-Methyl-1-oxo-5-(2,4-dimethoxyphenyl)-5,6,11,11a-tetrahydro-1H-imidazo[5,1-6,1]pyrido[3,4-b]indole-3(2H)-thione]	–	–	29	188 to 191	–
COc1ccc([C@@H]2c3[nH]c4ccccc4c3C[C@H]3C(=O)N(c4ccc(Cl)cc4)C(=O)N23)c(OC)c1 [Compound 16, (5R,11aS)-2-(P-Chlorophenyl)-5-(2,4-dimethoxyphenyl)-5,6,11,11a-tetrahydro-1-H-imidazo[5,1-6,1]pyrido[3,4-b]indole-1,3-dione]	–	–	63	212 to 215	–
COc1ccc([C@H]2c3[nH]c4ccccc4c3C[C@H]3C(=O)N(C(C)(C)C)C(=O)N23)c(OC)c1 [Compound 11, (5S,11aS)-2-Tertiarybutyl-5-(2,4-dimethoxyphenyl)-5,6,11,11a-tetrahydro-1-H-imidazo[5,1-6,1]pyrido[3,4-b]indole-1,3-dione]	–	–	46	103 to 106	–
COC(=O)[C@H]1Cc2c([nH]c3ccccc23)[C@@H](c2ccc(OC)cc2OC)N1 [Compound 1, (1R, 3R) Methyl-1-(2,4-dimethoxyphenyl)-2,3,4,9-tetrahydro-1-H-pyrido[3,4-b]indole-3-carboxylate]	5.60	–	77	86 to 88	–
COc1ccc([C@H]2c3[nH]c4ccccc4c3C[C@@H]3C(=O)N(c4ccc(Cl)cc4)C(=O)N23)c(OC)c1 [Compound 14, (5S,11aR)-2-(P-Chlorophenyl)-5-(2,4-dimethoxyphenyl)-5,6,11,11a-tetrahydro-1-H-imidazo[5,1-6,1]pyrido[3,4-b]indole-1,3-dione]	–	–	60	214 to 216	–
COc1ccc([C@H]2c3[nH]c4ccccc4c3C[C@@H]3C(=O)N(C)C(=S)N23)c(OC)c1 [Compound 18, (5S,11aR)-2-Methyl-1-oxo-5-(2,4-dimethoxyphenyl)-5,6,11,11a-tetrahydro-1-H-imidazo[5,1-1,6]pyrido[3,4-b]indole-3(2H)-thione]	–	–	23	188 to 190	–
COC(=O)[C@H]1Cc2c([nH]c3ccccc23)[C@H](c2ccc(OC)cc2OC)N1 [Compound 2, (1S,3R) Methyl-1-(2,4-dimethoxyphenyl)-2,3,4,9-tetrahydro-1-H-pyrido[3,4-b]indole-3-carboxylate]	–	–	63	146 to 147	–
CCN1C(=O)[C@@H]2Cc3c([nH]c4ccccc34)[C@H](c3ccc(OC)cc3OC)N2C1=O [Compound 7, (5S,11aS)-2-Ethyl-5-(2,4-dimethoxyphenyl)-5,6,11,11a-tetrahydro-1-H-imidazo[5,1-6,1]pyrido[3,4-b]indole-1,3-dione]	–	–	54	217 to 220	–
COC(=O)[C@@H]1Cc2c([nH]c3ccccc23)[C@@H](c2ccc(OC)cc2OC)N1 [Compound 4, (1R,3S) Methyl-1-(2,4-dimethoxyphenyl)-2,3,4,9-tetrahydro-1-H-pyrido[3,4-b]indole-3-carboxylate]	5.19	–	75	148 to 150	–
CCN1C(=O)[C@H]2Cc3c([nH]c4ccccc34)[C@H](c3ccc(OC)cc3OC)N2C1=O [Compound 6, (5S,11aR)-2-Ethyl-5-(2,4-dimethoxyphenyl)-5,6,11,11a-tetrahydro-1-H-imidazo[5,1-6,1]pyrido[3,4-b]indole-1,3-dione]	6.14	active	88	190 to 193	–
CN1CC(=O)N2[C@H](c3ccc4c(c3)OCO4)c3[nH]c4ccccc4c3C[C@@H]2C1=O [Tadalafil, tadalafil, reference compound]	–	–	–	–	99
C=CCN1C(=O)[C@H]2Cc3c([nH]c4ccccc34)[C@H](c3ccc(OC)cc3OC)N2C1=S [Compound 20, (5S,11aR)-2-Allyl-1-oxo-5-(2,4-dimethoxyphenyl)-5,6,11,11a-tetrahydro-1H-imidazo[5,1-6,6,1]pyrido[3,4-b]indole-3(2H)-thione]	–	–	58	224 to 227	–
COc1ccc([C@@H]2c3[nH]c4ccccc4c3C[C@H]3C(=O)N(C(C)(C)C)C(=O)N23)c(OC)c1 [Compound 12, (5R,11aS)-2-Tertiarybutyl-5-(2,4-dimethoxyphenyl)-5,6,11,11a-tetrahydro-1-H-imidazo[5,1-6,1]pyrido[3,4-b]indole-1,3-dione]	6.26	active PDE5 inhibitors	87	193 to 195	–
COc1ccc([C@H]2c3[nH]c4ccccc4c3C[C@@H]3C(=O)N(C(C)(C)C)C(=O)N23)c(OC)c1 [Compound 10, (5S,11aR)-2-Tertiarybutyl-5-(2,4-dimethoxyphenyl)-5,6,11,11a-tetrahydro-1-H-imidazo[5,1-6,1]pyrido[3,4-b]indole-1,3-dione]	–	–	68	191 to 193	–
C=CCN1C(=O)[C@@H]2Cc3c([nH]c4ccccc34)[C@@H](c3ccc(OC)cc3OC)N2C1=S [Compound 19, (5R,11aS)-2-Allyl-1-oxo-5-(2,4-dimethoxyphenyl)-5,6,11,11a-tetrahydro-1H-imidazo[5,1-1,6]pyrido[3,4-b]indole-3(2H)-thione]	6.25	–	87	224 to 227	–
CCN1C(=O)[C@@H]2Cc3c([nH]c4ccccc34)[C@@H](c3ccc(OC)cc3OC)N2C1=O [Compound 8, (5R,11aS)-2-Ethyl-5-(2,4-dimethoxyphenyl)-5,6,11,11a-tetrahydro-1-H-imidazo[5,1-6,1]pyrido[3,4-b]indole-1,3-dione]	6.44	active PDE5 inhibitors	97	192 to 195	–
